What was measured:
OVCAR8 = test: In vitro toxicity screening (CellTiter-Blue cell viability, 48 hours); format: cell-based, human
Excerpt: (§1) Cancer cell lines, OVCAR8 (Center for Cancer Research (OVAR.8; Sample ID 25)), SW1088 (ATCC-HTB-12), and Toledo (ATCC CRL-2631), and normal human neonatal dermal fibroblasts cell line (ATCC-PCS-201-010) were passaged and prepped as previously described (See References 15-17). OVCAR8, SW1088, and Toledo2631 are ovarian, brain, and B-cell lymphoma cancer cell lines, respectively. This panel of cell lines was chosen based, in part, on their being from very different cancer types in order to discern whether occidiofungin would have a broad spectrum activity towards cancer cell lines of vastly different parental organ/cell types. OVCAR8 cells are widely used in the field of cancer therapeutic research as a panel representative of ovarian cancer in screening experiments for identifying both ovarian-specific and non-specific (i.e., anti-neoplastic activity on multiple cancer cell types) therapeutic agents (See References 28-30). Similarly, SW1088 cells are widely used in the field of cancer therapeutic research as a panel representative of glioma (the most common brain cancer) in screening experiments for identifying both glioma-specific and non-specific therapeutic agents (See References 31-32). Toledo 2631 cells are derived from lymphoma cells, and are used in the field of cancer therapeutic research for identifying lymphoma-specific and non-specific therapeutic agents (See, e.g., Reference 33). […] Cell counts per plate were calculated to be approximately 50,000 cells/mL. A 10× stock solution of occidiofungin was prepared at 65 μM concentration in 10% dimethyl sulfoxide (DMSO). Two-fold serial dilutions on a 96 well plate were set up in triplicate with starting concentration of 6.5 μM and a final concentration of 3 nM. Bortezomib was used as a comparator for toxicity against human fibroblast and was serially diluted two-fold starting at a concentration of 5 μM and ending at 2.5 nM. Bortezomib is used clinically against myeloma and lymphoma cancers in patients refractory against other chemotherapeutics (See References 18, 19). Furthermore, bortezomib has shown efficacy against a variety of solid tumors and cancer cell lines, making this an appropriate comparison molecule in the panel of cell lines chosen (See References 34-35). The plates were then incubated at 37° C. in 5% CO2 for 48 hours. After 48 hours, cell viability was monitored using CellTiter-Blue (Promega) cell viability assay by measuring the fluorescence emission of a redox activated dye (579EX/584EM) using a POLARstar Omega microplate reader (BMG Labtech).

SW1088 = test: as above; format: cell-based, human; conditions: SW1088 astrocytoma brain cancer cell line, mean of three independent experiments, read-out: TC50 (the source's name)
Excerpt: as §1

Toledo (ATCC CRL-2631) = test: as above; format: cell-based, human; conditions: Toledo CRL-2631 B-cell lymphoma cell line, mean of three independent experiments, read-out: TC50 (the source's name)
Excerpt: as §1

[1] = Pharmacokinetics in mouse (i.v., LC-MS/MS of plasma); format: in vivo; conditions: 2.5 mg/kg i.v., mice
Description: Six week old female BALB-C mice were used for this experiment. Occidiofungin, at a concentration of 2.5 mg/kg of body weight, was administered through the tail vein of each mouse. Nine mice were randomly selected for this experiment and were grouped into three groups of three mice each. Blood was drawn at 1, 3, 5, 7, 9, 12, 24 and 48 hours post injection (hpi) from the mice. 15 μl of blood was drawn from the lateral saphenous vein of each mouse for the first three time points. Blood from three mice were pooled together and added to 5 μl of 6.4% citric acid to prevent coagulation. From the fourth time point, blood was drawn from the tail vein of the mice. Blood samples were spun down at 13000 rpm for 10 minutes to separate the plasma. The plasma and the blood pellet obtained were stored separately at −20° C. for analysis. The plasma samples were thawed and the occidiofungin was extracted using a final concentration of 50% methanol. The protein precipitate was spun down at 13000 rpm for 10 minutes and the supernatant was used for analysis. The LC-MS/MS components were carried out at ThermoScientific laboratories. Liquid chromatography was done using Acclaim 120 C18 columns (Length: 150 mm; I.D: 2.1 mm; 5 μm) to purify the occidiofungin in the sample. The occidiofungin was then subjected to MS/MS using the ThermoScientific TSQ Vantage. Fragmentation of the occidiofungin (parent mass 1216 m/z) was carried out and the fragment of 1084 m/z, which corresponds to the occidiofungin molecule without the xylose sugar, was used for quantification of occidiofungin. All data were acquired and analyzed using TraceFinder (v 3.1).

wide array of fungi = conditions: cited from earlier work
Candida albicans = Candida albicans (References 9, 10); cited from earlier work
yeast cells = conditions: low drug concentrations (1 μg/ml, around 833 nM), Reference 2; cited from earlier work
[2] = test system: Saccharomyces cerevisiae gene deletion mutants; conditions: Δycal vs wild-type, Reference 2; cited from earlier work

occidiofungin
CC50 (OVCAR8; OVCAR8 ovarian cancer cell line, 48 hours, mean of three independent experiments, read-out: TC50 (the source's name)): 61 nM
activity against the cancer cell lines relative to what has been reported against Candida species (OVCAR8; cancer cell lines OVCAR8, SW1088, Toledo together): ten to twenty-fold higher
CC50 (SW1088): 68 nM
CC50 (Toledo (ATCC CRL-2631)): 70 nM
clearance from the system by 24 hours [1]: rapidly cleared
concentration at 9-12 hpi compared to the concentration at 7 hpi [1]: 2.5 times
concentration of occidiofungin relative to the TC50 value for the cancer strains [1]: three to six fold higher
time at which occidiofungin concentration peaked [1]: around 9 hpi
concentration by 48 hours ([1]; limit of quantification 50 ng/ml): below the level of quantification
peak concentration in blood/plasma ([1]; tail vein): 480 ng/mL
concentrations at which antifungal activity was observed (wide array of fungi): micromolar to sub micromolar
fungicidal activity compared with caspofungin (Candida albicans): more rapid
morphological change of yeast cells (yeast cells): appeared to shrink in size
increase in resistance on deletion of the ycal gene [2]: 2 fold

Reference: patent US10265374B2, “Occidiofungin formations and uses thereof” (MISSISSIPPI STATE UNIVERSITY, priority 2014, dated 2019)
